Laboratory results reported in article PMC7994582 (Communications Biology, 2021).
Where a SMILES comes first, the peptide text is derived from it. [ ]: non-standard residue; d: D form. pS = N[C@@H](COP(=O)(O)O)C(=O)O

Key:
[1] = molecular target: T1, Ess1 (Saccharomyces cerevisiae, UniProt P22696, R8S); experiment: Competition fluorescence anisotropy (unlabeled CTD peptides vs. FITC-1R-CTD for Ess1 binding); conditions: for Normalized Anisotropy: competition vs FITC-1R-CTD, mean
T1 construct: Full-length Ess1 or Ess1 C120S plasmid was used to transform E. coli cells; 6xHis (cleaved yes); made in house; host or cells: E. coli Rosetta II (DE3) pLysS, isotope-labeled M9 minimal media
T1 sequence (P22696 whole entry R8S): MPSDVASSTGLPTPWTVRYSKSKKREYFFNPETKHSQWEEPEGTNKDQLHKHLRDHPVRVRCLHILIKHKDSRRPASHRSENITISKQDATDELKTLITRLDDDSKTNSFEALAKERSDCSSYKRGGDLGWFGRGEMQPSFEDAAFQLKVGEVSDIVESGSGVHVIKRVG
Experimental: A 1 repeat CTD peptide labeled with FITC at its N-terminus was used as a probe (FITC-1R, Table 2). […] Each point represents an average (±SD) of n = 2 or 3 from independent experiments.
Fluorescence anisotropy measurements were performed in a Hidex Sense microplate reader using an excitation wavelength of 485 nm and an emission wavelength of 535 nm. Measurements were performed in 20 mM Tris pH 8.0, 3 mM TCEP buffer. […] Competition data was used to calculate IC50 values to compare the affinity differences between all five substrates (Eq. (1)).1 Competitionmodel:f1=min+max−min/1+x/IC50∧−Hillslope

[2] = molecular target: T1, Ess1; experiment: NMR 1H-15N HSQC titration, Kd determination (single-site model); type: binding
Experimental: Binding was monitored by recording ^1H–^15N HSQC spectra at different peptide to protein ratios. For each backbone amide, we assumed that the CSP was a weighted average between the free (Δδ = 0) and ligand-bound (Δδ = Δδbound) states, such that Δδ = Δδbound * [PL]/[Ptotal]. Here, [PL] and [Ptotal] represent the ligand-bound protein concentration, and Ptotal is the total protein concentration of Ess1. The CSP for each amide was calculated using the equation CSP=ΔδH^2+ΔδN/5^2 where ΔδH and ΔδN represent the change in chemical shift in the ^1H and ^15N dimensions, such that Δδ = 0 when calculating the CSP for the reference spectrum (in the absence of ligand). To obtain the dissociation binding constant, Kd, we used the single-site binding equation, PL=(([Ptotal]+[Ltotal]+Kd)−([Ptotal]+[Ltotal]+Kd)^2−4*[Ptotal]*[Ltotal])/2 , where [Ptotal] and [Ltotal] are total protein (Ess1) and ligand (CTD peptide) concentrations, respectively. Fitting was performed using an in-house Matlab script. […] Errors represent standard deviation of residue-specific Kd values.

[3] = molecular target: 1R CTD peptide CTD 1 repeat (Saccharomyces cerevisiae) (UniProt P04050); conditions: cited from earlier work
Sequence of 1R CTD peptide CTD 1 repeat (Saccharomyces cerevisiae) (P04050 whole entry, looked up, tested part not stated): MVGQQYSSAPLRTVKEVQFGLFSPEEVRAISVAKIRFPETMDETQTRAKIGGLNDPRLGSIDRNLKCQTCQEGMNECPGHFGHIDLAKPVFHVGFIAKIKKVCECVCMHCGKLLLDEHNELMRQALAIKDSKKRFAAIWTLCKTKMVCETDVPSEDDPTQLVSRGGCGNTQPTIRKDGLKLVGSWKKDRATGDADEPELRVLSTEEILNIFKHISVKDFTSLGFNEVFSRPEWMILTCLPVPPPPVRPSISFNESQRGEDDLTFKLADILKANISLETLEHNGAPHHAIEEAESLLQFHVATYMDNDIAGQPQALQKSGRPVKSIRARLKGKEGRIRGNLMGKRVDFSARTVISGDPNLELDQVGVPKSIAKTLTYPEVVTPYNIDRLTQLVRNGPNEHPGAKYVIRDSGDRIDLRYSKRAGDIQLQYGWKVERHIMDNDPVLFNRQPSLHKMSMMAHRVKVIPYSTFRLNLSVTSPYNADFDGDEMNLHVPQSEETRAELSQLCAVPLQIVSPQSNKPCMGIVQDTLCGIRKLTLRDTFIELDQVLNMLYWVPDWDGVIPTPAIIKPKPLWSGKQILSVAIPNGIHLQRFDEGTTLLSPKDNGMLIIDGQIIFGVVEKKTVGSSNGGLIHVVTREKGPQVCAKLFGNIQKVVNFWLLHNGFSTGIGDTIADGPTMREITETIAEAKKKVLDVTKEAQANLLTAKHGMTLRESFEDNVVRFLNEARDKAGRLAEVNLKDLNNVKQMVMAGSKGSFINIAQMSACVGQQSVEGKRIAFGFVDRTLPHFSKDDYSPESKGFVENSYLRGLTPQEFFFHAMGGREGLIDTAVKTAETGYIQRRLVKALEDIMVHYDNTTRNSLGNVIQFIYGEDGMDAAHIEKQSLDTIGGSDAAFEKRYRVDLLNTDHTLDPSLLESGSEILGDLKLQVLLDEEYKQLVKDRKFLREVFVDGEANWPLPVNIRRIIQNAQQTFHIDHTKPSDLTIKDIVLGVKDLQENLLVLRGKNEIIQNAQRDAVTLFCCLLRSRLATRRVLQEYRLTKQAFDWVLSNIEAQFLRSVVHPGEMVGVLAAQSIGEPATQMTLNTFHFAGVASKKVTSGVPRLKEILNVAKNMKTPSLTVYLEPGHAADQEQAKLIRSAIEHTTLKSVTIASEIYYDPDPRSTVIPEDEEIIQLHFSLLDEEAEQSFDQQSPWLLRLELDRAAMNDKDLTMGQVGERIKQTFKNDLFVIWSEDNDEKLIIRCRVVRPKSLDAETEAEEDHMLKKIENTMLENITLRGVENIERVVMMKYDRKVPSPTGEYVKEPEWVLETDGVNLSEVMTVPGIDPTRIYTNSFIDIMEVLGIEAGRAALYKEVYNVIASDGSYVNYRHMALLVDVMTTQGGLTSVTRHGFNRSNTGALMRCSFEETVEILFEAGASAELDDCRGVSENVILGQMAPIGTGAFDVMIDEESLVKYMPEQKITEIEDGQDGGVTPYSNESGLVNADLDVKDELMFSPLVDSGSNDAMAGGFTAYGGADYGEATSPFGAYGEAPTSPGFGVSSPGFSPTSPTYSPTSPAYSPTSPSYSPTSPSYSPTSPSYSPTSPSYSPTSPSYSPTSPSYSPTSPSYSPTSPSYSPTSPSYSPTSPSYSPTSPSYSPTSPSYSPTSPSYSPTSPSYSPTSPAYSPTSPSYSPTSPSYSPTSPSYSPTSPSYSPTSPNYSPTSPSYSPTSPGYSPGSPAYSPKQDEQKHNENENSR

[4] = residue-specific, 1 to 1 binding fit of NMR titration

Sequence of Ess1 (from UniProt P22696) (P22696 whole entry): as the sequence (P22696 whole entry R8S) above, with S8R counted along it

With `CC(=O)N[C@@H](C)C(=O)N[C@@H](CO)C(=O)N[C@@H](Cc1ccc(O)cc1)C(=O)N[C@@H](CO)C(=O)N1CCC[C@H]1C(=O)N[C@H](C(=O)N[C@@H](COP(=O)(O)O)C(=O)N1CCC[C@H]1C(=O)N[C@@H](CO)C(=O)N[C@@H](Cc1ccc(O)cc1)C(=O)N[C@@H](CO)C(N)=O)[C@@H](C)O` [1R] (Ac-ASYSPT[pS]PSYS-NH2) the IC50 [1] was 259 ± 33 µM, the “Normalized Anisotropy” value ([1]; [1R CTD] 21 μM) was 0.9587 and the “Normalized Anisotropy” value ([1]; [1R CTD] 42 μM) was 0.9533. The “Normalized Anisotropy” value ([1]; [1R CTD] 84 μM) was 0.9581, the “Normalized Anisotropy” value ([1]; [1R CTD] 280 μM) was 0.8033 and the “Normalized Anisotropy” value ([1]; [1R CTD] 336 μM) was 0.7637. The “Normalized Anisotropy” value ([1]; [1R CTD] 560 μM) was 0.6982, the Kd [2] was 155 µM and the “Kd, Ess1 residue 16” value [2, 4] was 119.2 µM. For the same molecule, the “Kd, Ess1 residue 17” value [2, 4] was 111.1 µM, the “Kd, Ess1 residue 18” value [2, 4] was 151.9 µM and the “Kd, Ess1 residue 19” value [2, 4] was 153.7 µM. For the same molecule, the “Kd, Ess1 residue 23” value [2, 4] was 148.5 µM, the “Kd, Ess1 residue 25” value [2, 4] was 124.8 µM and the “Kd, Ess1 residue 26” value [2, 4] was 196.0 µM. For the same molecule, the “Kd, Ess1 residue 27” value [2, 4] was 128.9 µM, the “Kd, Ess1 residue 28” value [2, 4] was 161.3 µM and the “Kd, Ess1 residue 29” value [2, 4] was 141.4 µM. For the same molecule, the “Kd, Ess1 residue 30” value [2, 4] was 103.1 µM, the “Kd, Ess1 residue 34” value [2, 4] was 233.3 µM and the “Kd, Ess1 residue 35” value [2, 4] was 274.5 µM. For the same molecule, the “Kd, Ess1 residue 37” value [2, 4] was 153.0 µM, the “Kd, Ess1 residue 38” value [2, 4] was 102.8 µM and the “Kd, Ess1 residue 39” value [2, 4] was 153.9 µM. For the same molecule, the “Kd, Ess1 residue 40” value [2, 4] was 157.5 µM, the “Kd, Ess1 residue 48” value [2, 4] was 156.8 µM and the “Kd, Ess1 residue 49” value [2, 4] was 216.2 µM. The “Kd, Ess1 residue 52” value [2, 4] was 132.6 µM, the “Kd, Ess1 residue 58” value [2, 4] was 96.2 µM and the “Kd, Ess1 residue 59” value [2, 4] was 156.4 µM. For the same molecule, the “Kd, Ess1 residue 64” value [2, 4] was 134.1 µM, the “Kd, Ess1 residue 70” value [2, 4] was 111.0 µM and the “Kd, Ess1 residue 73” value [2, 4] was 89.4 µM. The “Kd, Ess1 residue 84” value [2, 4] was 119.4 µM, the “Kd, Ess1 residue 87” value [2, 4] was 180.8 µM and the “Kd, Ess1 residue 123” value [2, 4] was 227.8 µM. The “Kd, Ess1 residue 130” value [2, 4] was 175.2 µM, the “Kd, Ess1 residue 131” value [2, 4] was 207.7 µM and the “Kd, Ess1 residue 133” value [2, 4] was 166.8 µM. For the same molecule, the “Kd, Ess1 residue 137” value [2, 4] was 128.3 µM, the “Kd, Ess1 residue 145” value [2, 4] was 205.8 µM and the “Kd, Ess1 residue 146” value [2, 4] was 235.1 µM. The “Kd, Ess1 residue 149” value [2, 4] was 100.8 µM, the “Kd, Ess1 residue 150” value [2, 4] was 113.4 µM and the “Kd, Ess1 residue 157” value [2, 4] was 151.8 µM. For the same molecule, the “Kd, Ess1 residue 158” value [2, 4] was 122.1 µM, the “Kd, Ess1 residue 159” value [2, 4] was 176.3 µM and the “Kd, Ess1 residue 162” value [2, 4] was 71.8 µM. The “Kd, Ess1 residue 164” value [2, 4] was 188.7 µM.

For `CC(=O)N[C@@H](Cc1ccc(O)cc1)C(=O)N[C@@H](CO)C(=O)N1CCC[C@H]1C(=O)N[C@H](C(=O)N[C@@H](COP(=O)(O)O)C(=O)N1CCC[C@H]1C(=O)N[C@@H](CO)C(=O)N[C@@H](Cc1ccc(O)cc1)C(=O)N[C@@H](CO)C(=O)N1CCC[C@H]1C(=O)N[C@H](C(=O)N[C@@H](COP(=O)(O)O)C(=O)N1CCC[C@H]1C(=O)N[C@@H](CO)C(N)=O)[C@@H](C)O)[C@@H](C)O` [2R], the IC50 [1] was 59 µM, the “Normalized Anisotropy” value ([1]; [2R CTD] 29.25 μM) was 0.8399 and the “Normalized Anisotropy” value ([1]; [2R CTD] 58.5 μM) was 0.6905. For the same molecule, the “Normalized Anisotropy” value ([1]; [2R CTD] 234 μM) was 0.4873.

For Ess1 (from UniProt P22696), the Kd [3] is given as 60 µM.
